Active and inactive are the calls of the source.
How the values were obtained:
Troponin, cardiac muscle = Troponin, cardiac muscle (Homo sapiens, UniProt P19429+P45379+P63316); assay: inhibitors of cardiac thin filament calcium sensitivity, dose response, biochemical, fluorescence, cardiac regulated thin filaments, triplicate IC50 (AID 504742); assay type: protein-complex assay
Caspase-6 = Caspase-6 (Homo sapiens, UniProt P55212); assay: human caspase-6 inhibitors, dose response, biochemical, VEID-R110 fluorescence, cherry-pick (AID 720632)
Caspase-8 = Caspase-8 (Homo sapiens, UniProt Q14790); assay: caspase-8 inhibition counter-screen, dose response, selectivity assay for caspase-6 inhibitor project, biochemical, Z-IETD-R110 fluorescence, cherry-picked samples (AID 743294)
HeLa = assay: HeLa cell cytotoxicity, dose response, cytotoxicity control, 24 h, cherry-picked samples (AID 504726); assay type: functional, cell-based; details: Homo sapiens;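 also: potency for cytotoxicity as loss of luminescence signal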
[1] = molecular target: T1, Dual specificity protein phosphatase 3 (Homo sapiens, UniProt P51452); assay: VHR1 phosphatase inhibitors, primary screen, biochemical, absorbance, uHTS (AID 1654)
[2] = molecular target: Polyadenylate-binding protein 1 (Homo sapiens, UniProt P11940); assay: PABP1 MLLE–PAM2 interaction inhibitors, dose response, miRNA deadenylation inhibitor project, biochemical, fluorescence polarization, Cy5-PAM2 peptide, secondary (AID 602260); assay type: functional; details: read-out: IC50_Mean
[3] = molecular target: T2, RNA-binding protein pos-1 (Caenorhabditis elegans, UniProt G5EF15); assay: inhibitors of POS-1/mex-3 RNA binding, dose response, biochemical, fluorescence polarization (AID 1964);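 also: purified POS-1 fused to maltose binding protein made in E. coli; potency of compounds blocking POS-1 binding to fluorescent RNA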
T2 sequence (G5EF15 whole entry): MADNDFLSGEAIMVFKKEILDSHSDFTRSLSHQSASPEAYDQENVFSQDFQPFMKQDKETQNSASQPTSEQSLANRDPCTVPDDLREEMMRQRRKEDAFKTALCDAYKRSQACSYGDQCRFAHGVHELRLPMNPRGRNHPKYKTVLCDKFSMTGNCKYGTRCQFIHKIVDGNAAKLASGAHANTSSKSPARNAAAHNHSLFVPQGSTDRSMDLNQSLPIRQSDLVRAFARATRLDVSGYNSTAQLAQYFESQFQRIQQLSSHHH

[4] = molecular target: T1, Dual specificity protein phosphatase 3; assay: VHR1 phosphatase inhibitors, biochemical (AID 1878)
Salmon testes DNA = assay: DNA intercalators displacing acridine orange, dose response, artefact control for KSHV LANA DNA-binding inhibitor project, biochemical, fluorescence polarization, cherry-picked samples, set 2 (AID 504727); parameters: species or system Salmonidae
[5] = molecular target: T3, Endoribonuclease toxin MazF (Escherichia coli K-12, UniProt P0AE70); assay: MazF toxin RNase activators, dose response, biochemical, fluorescence, single-stranded RNA substrate, uHTS hits (AID 588481); assay type: functional
T3 sequence (P0AE70 whole entry): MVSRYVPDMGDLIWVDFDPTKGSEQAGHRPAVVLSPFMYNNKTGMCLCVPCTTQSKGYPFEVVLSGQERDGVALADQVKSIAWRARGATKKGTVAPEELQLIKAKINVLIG

[6] = molecular target: Dual specificity tyrosine-phosphorylation-regulated kinase 1A (Rattus norvegicus, UniProt Q63470); assay type: biochemical, Homo sapiens
[7] = molecular target: Bifunctional protein GlmU (Mycobacterium tuberculosis, UniProt P9WMN3); assay: Inhibitors of Mycobacterial Glucosamine-1-phosphate acetyl transferase (GlmU). Secondary screen.; parameters: species or system Mycobacterium tuberculosis H37Rv
ORF 73 = ORF 73 (Human herpesvirus 8, UniProt O40947); assay: inhibitors of C-LANA binding to LBS DNA, dose response, biochemical, fluorescence polarization, cherry-picked samples (AID 504725); parameters: species or system Human gammaherpesvirus 8;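 also: fluorescence polarization of a labeled DNA duplex reporting LANA DNA binding; potency is for inhibitors that block LANA binding to the DNA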
[8] = molecular target: T4, Zinc finger protein mex-5 (Caenorhabditis elegans, UniProt Q9XUB2); assay: MEX-5/TCR-2 RNA interaction inhibitors, dose response, biochemical, C. elegans, fluorescence polarization (AID 1960)
T4 sequence (Q9XUB2 whole entry): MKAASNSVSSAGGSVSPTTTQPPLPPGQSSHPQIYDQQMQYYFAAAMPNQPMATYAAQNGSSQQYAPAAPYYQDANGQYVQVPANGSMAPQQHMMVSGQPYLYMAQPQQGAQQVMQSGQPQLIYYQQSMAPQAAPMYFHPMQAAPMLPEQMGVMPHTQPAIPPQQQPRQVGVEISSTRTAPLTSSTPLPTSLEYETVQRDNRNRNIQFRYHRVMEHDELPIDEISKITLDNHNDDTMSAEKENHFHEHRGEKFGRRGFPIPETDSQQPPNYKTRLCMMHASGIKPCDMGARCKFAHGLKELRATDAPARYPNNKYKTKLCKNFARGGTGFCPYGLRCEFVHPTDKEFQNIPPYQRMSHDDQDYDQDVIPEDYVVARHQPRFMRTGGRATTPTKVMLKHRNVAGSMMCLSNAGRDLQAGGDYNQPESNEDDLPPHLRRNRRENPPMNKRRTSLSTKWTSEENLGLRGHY

Cytochrome P450 3A4 = Cytochrome P450 3A4 (Homo sapiens, UniProt P08684); details: Potency;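 also: confirmatory qHTS run detecting inhibitors and substrates of CYP3A4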
[9] = molecular target: T5, Dual specificity protein phosphatase 6 (Rattus norvegicus, UniProt Q64346); assay: MKP-3 phosphatase inhibitors, primary screen, biochemical, rat enzyme, in vitro (AID 425)
T5 sequence (Q64346 whole entry): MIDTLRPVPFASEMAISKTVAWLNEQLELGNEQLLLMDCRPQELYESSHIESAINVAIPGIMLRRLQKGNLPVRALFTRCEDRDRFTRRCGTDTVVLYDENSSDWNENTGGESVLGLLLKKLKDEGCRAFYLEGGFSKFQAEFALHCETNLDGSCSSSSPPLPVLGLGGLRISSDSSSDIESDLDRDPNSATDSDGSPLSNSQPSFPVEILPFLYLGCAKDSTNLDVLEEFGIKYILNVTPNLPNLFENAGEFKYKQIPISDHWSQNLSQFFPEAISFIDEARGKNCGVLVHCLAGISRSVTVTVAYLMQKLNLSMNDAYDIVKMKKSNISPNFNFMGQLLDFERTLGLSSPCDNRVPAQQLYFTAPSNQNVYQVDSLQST

Albumin = Albumin (Bos taurus, UniProt P02769); assay: Counterscreen for inhibitors of T-cell receptor (TCR)-CD3 interaction: Fluorescence-based biochemical high throughput dose response assay to identify inhibitors of T-cell receptor (TCR)-CD3 interaction using a TAMRA-labeled BSA probe.; assay type: functional
Albumin, sequence (P02769 whole entry): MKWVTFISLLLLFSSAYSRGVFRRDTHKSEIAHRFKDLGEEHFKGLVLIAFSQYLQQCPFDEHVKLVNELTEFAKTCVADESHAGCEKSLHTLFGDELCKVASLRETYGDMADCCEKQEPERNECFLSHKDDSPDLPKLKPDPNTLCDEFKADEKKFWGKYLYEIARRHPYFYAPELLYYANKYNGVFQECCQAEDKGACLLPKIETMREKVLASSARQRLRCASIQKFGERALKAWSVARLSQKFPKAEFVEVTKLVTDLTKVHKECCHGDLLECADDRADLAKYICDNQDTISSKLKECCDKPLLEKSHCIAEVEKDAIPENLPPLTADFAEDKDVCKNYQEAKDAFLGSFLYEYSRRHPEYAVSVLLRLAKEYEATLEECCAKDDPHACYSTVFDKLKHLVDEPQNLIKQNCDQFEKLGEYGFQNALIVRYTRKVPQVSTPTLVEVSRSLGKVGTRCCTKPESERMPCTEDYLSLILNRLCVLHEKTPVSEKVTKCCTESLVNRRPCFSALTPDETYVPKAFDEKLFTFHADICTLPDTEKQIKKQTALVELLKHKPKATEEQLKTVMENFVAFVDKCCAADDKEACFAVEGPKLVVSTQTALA

T1 sequence (P51452 whole entry): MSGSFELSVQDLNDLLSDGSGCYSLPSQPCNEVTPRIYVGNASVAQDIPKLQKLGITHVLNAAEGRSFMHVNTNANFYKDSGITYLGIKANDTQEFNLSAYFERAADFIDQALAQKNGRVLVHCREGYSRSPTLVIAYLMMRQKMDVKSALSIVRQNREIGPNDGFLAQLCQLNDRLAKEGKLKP
Caspase-6, sequence (P55212 24-179 limits assumed): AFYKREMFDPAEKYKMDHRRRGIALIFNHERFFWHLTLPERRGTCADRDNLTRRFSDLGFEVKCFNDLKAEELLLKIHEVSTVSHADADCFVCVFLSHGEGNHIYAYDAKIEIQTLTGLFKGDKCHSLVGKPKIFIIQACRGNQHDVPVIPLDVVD
Caspase-6, sequence (P55212 194-293 limits assumed): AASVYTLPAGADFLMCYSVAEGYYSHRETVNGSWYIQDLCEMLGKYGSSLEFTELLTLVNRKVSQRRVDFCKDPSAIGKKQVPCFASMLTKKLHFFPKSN
Caspase-8, sequence (Q14790 217-374 limits assumed): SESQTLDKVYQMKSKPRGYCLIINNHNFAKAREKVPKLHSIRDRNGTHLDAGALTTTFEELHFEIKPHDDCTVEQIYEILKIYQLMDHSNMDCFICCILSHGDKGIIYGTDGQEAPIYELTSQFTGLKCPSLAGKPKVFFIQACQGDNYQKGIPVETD
Caspase-8, sequence (Q14790 385-479 limits assumed): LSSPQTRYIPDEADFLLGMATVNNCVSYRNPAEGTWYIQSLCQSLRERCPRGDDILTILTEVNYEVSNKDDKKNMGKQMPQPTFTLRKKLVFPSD
ORF 73, sequence (O40947 whole entry): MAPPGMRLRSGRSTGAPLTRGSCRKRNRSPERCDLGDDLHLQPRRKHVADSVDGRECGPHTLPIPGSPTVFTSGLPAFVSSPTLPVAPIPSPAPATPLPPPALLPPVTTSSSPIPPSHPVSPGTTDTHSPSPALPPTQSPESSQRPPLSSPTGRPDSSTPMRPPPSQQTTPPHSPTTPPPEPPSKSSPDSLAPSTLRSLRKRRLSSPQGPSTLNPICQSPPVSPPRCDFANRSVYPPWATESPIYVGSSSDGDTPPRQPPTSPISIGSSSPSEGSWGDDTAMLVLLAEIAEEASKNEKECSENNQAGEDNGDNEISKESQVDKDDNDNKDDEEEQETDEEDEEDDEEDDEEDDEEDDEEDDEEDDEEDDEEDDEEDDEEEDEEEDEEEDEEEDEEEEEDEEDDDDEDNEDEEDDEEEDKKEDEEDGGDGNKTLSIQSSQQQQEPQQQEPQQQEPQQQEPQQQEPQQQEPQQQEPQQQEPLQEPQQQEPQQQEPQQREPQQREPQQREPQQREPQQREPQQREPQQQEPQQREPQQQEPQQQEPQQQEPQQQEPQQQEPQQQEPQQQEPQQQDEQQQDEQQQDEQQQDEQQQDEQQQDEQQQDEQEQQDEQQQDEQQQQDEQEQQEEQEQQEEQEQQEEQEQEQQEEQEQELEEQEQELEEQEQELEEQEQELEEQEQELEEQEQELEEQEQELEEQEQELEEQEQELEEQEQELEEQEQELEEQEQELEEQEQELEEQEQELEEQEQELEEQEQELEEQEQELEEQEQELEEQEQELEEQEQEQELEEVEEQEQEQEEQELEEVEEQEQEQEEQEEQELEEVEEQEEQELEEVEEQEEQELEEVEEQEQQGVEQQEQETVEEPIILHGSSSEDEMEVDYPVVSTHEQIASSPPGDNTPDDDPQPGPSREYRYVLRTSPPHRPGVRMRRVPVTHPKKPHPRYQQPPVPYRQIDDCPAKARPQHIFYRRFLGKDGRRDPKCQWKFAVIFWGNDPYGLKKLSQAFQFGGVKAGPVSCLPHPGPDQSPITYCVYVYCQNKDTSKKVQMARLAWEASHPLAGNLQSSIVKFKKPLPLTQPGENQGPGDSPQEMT
Bifunctional protein GlmU, sequence (P9WMN3 whole entry): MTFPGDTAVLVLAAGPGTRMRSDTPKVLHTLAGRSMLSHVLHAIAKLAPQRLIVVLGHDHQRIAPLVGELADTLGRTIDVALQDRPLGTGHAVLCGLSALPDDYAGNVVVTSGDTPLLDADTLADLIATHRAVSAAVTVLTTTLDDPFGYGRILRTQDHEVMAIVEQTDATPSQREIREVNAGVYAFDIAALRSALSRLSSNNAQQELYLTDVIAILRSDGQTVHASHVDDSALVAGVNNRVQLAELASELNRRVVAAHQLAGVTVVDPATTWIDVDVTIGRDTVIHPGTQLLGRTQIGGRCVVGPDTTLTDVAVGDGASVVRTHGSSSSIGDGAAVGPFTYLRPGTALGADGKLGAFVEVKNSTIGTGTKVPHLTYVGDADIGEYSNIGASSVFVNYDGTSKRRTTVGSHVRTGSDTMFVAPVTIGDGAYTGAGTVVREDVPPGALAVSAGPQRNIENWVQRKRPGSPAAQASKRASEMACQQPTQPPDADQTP
Cytochrome P450 3A4, sequence (P08684 whole entry): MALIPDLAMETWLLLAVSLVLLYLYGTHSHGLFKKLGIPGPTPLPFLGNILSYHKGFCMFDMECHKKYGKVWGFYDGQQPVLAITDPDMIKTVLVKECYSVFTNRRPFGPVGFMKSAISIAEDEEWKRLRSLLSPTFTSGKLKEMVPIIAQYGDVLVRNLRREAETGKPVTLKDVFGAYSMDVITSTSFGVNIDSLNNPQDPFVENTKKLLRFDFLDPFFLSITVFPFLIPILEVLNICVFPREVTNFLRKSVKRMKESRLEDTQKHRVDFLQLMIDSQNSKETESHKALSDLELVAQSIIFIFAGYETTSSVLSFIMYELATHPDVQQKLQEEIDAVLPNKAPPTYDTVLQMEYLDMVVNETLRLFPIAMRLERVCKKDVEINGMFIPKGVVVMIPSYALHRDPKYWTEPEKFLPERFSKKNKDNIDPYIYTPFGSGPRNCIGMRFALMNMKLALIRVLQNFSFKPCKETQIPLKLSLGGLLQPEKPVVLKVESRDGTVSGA
Polyadenylate-binding protein 1, sequence (P11940 whole entry, the tested form may be a part): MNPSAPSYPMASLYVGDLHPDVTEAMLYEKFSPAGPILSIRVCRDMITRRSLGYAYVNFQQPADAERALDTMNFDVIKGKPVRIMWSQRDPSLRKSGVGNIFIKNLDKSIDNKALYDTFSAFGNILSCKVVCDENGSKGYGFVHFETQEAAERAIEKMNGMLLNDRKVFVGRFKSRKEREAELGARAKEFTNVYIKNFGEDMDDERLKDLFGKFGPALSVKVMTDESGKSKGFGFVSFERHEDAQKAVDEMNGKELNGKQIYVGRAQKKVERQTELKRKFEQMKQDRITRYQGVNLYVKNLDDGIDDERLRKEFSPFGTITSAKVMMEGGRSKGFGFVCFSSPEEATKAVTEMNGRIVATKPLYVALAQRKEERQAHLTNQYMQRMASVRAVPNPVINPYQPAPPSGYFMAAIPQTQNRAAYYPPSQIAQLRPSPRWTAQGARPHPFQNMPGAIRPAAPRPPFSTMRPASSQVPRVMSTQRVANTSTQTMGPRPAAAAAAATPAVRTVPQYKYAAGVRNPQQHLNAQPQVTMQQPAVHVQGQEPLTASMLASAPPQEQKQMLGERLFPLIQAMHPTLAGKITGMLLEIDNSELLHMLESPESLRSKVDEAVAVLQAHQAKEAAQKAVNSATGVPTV

O=c1c(O)cccc2cc(O)c(O)c(O)c12 [PURPUROGALLIN]
active: IC50 (Troponin, cardiac muscle) 3.62 µM | AC50 (Caspase-6) 0.0804 µM | AC50 (HeLa) 103 µM | EC50 [3] 6.57 µM | AC50 (Salmon testes DNA) 49.9 µM | AC50 [6] 1.61 µM | IC50 [7] 21.5 µM | AC50 (ORF 73) 25.9 µM | EC50 [8] 0.152 µM | IC50 [9] 29.2 µM
inactive: AC50 (Caspase-8) > 70 µM | IC50 [1] < 0.98 µM | IC50 [2] > 66 µM | IC50 [4] < 1.23 µM | EC50 [5] 80.3 µM | IC50 (Albumin) > 94.1 µM
inconclusive: AC50 (Cytochrome P450 3A4) 31.6 µM

Reference: ChEMBL document CHEMBL1201862, “PubChem BioAssay data set” (2004)
